Measured values reported in patent publication US20110046101A1, “BATE-LACTAMASE INHIBITORS” (priority 2008, published 2011).
pIC50: −log10 of the molar value. Several values for one entry are separate records, joined by “and”; a condition that tells them apart may be missing. Equal values may be shown once. Read-outs that look alike come from different tables or passages of the source.

Experiments:
IMP-1 = target: T1, IMP-1 (Serratia marcescens, UniProt P52699); assay: biochemical; conditions: for IC50: IC50 (μM) class B IMP-1, nitrocefin 100 μM, 50 mM Hepes pH 7.3
T1 construct: made in house; host or cells: E. coli (pCIP4 plasmid from Dr. M. Galleni)
T1 sequence (P52699 19-246 limits assumed): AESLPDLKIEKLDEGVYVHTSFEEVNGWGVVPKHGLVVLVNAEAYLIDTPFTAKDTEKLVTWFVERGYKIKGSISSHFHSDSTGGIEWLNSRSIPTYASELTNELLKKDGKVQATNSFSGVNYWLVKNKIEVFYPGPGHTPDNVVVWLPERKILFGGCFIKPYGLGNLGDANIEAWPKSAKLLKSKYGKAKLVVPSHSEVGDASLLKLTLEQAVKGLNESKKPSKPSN
Procedure: (§1) Compounds of the present application were evaluated as inhibitors of two Class B β-lactamases (IMP-1 and VIM-2) and two Class D β-lactamases OXA-10 and OXA-45).
IMP-1 was overexpressed in E. coli using the pCIP4 plasmid encoding IMP-1 which was obtained from Dr. M. Galleni, Université de Liège, B-4000 Liege, Belgium, and was purified as described by Laraki, N. et al., Antimicrob. Agents Chemother. 1999 43, 902-906.
(§2) Two methods were used for measurement of β-lactamase activity, based on the use of the substrate nitrocefin. The first was carried out in a cuvette (final volume 1 ml, 25° C.) with the aid of a Cary 5 spectrophotometer, and second was with the use of a Molecular Devices Spectramax 190 96 well plate reader (final volume 100 μl, 30° C.).
(§3) All assays were performed in the appropriate buffer for the enzyme: (i) IMP-1, VIM-2: 50 mM Hepes pH 7.3, 1 μg/ml BSA, 1 μM ZnSO4; (ii) OXA-45: 100 mM Na Phosphate/25 mM NaCO3 pH 7.0, 1 μg/ml BSA; and (iii) OXA-10: 100 mM Na Phosphate/25 mM NaCO3 pH 7.0. Enzyme concentrations were chosen so that a reasonable rate of reaction was observed. Inhibitors were dissolved in DMSO, with the final concentration of DMSO in the assay being 1%. Nitrocefin was dissolved in DMSO and diluted in 50 mM Hepes pH 7.3 with the final concentration in the assay being 100 μM. The enzyme was allowed to react with the inhibitor for a predetermined time followed by addition of substrate to initiate the reaction, which was monitored for an increase in absorbance at 482 nm. IC50 values were determined by plotting percent loss of initial activity vs log inhibitor concentration. Controls were run to ensure that there was minimal loss of activity with DMSO (<10%). When inhibition by DMSO was noted, 0.5 M NaCl was added to stabilize the enzyme.

VIM-2 = target: T2, VIM-2 (Escherichia coli, UniProt Q5U7L7); assay: biochemical; format: biochemical
T2 construct: made in house; host or cells: E. coli DH10B (pNOR,2001 plasmid from Dr. P. Nordmann)
Procedure: as §1
VIM-2 was overexpressed in E. coli (DH10B) containing the pNOR,2001 plasmid, encoding VIM-2, which was provided by Dr. P. Nordmann, Universite de Paris, and was purified as described by Poirel et al., Antimicrob. Agents Chemother. 2000, 44, 891-897.
as §2, §3

OXA-10 = target: T3, OXA-10 (Pseudomonas aeruginosa, UniProt P14489); assay: biochemical; format: biochemical
T3 construct: made in house; host or cells: E. coli (pEt24a(+) plasmid from Dr. S. Mobashery)
T3 sequence (P14489 20-266): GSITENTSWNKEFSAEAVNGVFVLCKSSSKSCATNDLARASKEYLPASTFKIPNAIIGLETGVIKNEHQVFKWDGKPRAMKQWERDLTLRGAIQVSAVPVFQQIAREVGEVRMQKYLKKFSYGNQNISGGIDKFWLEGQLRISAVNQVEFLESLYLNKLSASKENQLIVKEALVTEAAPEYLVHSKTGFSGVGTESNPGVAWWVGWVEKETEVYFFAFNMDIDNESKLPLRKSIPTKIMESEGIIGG
Procedure: as §1
OXA-10 was overexpressed in E. coli using the pEt24a(+) plasmid, encoding OXA-10, which was provided by Dr. S. Mobashery, University of Notre Dame, and was purified as described by Golemi et al., J. Am. Chem. Soc. 2000, 122, 6132-6133.
as §2, §3

OXA-45 = OXA-45 (Pseudomonas aeruginosa, UniProt Q7WZC7); assay: β-lactamase inhibition assay with nitrocefin substrate, OXA-45; format: biochemical; conditions: for IC50: nitrocefin 100 μM, 100 mM Na Phosphate/25 mM NaCO3 pH 7.0, read-out: IC50 (μM) class D OXA-45
OXA-45, sequence (Q7WZC7 entry or part of it): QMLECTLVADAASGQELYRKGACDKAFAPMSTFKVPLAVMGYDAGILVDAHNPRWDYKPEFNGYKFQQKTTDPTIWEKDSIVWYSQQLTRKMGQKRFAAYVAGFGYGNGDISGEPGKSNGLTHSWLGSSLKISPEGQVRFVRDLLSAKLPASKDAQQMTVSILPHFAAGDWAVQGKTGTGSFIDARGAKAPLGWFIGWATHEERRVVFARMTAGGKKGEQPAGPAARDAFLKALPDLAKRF
Procedure: as §1
OXA-45 was a gift from Dr. J. Spencer, University of Bristol, and had been prepared and purified as described by Toleman, M. A. et al., Antimicrob. Agents Chemother. 2003, 47, 2859-2863.
as §2, §3

[1] = tested on: Pseudomonas aeruginosa strain 81-11963 (produces metallo β-lactamase VIM-2); assay: Agar dilution MIC, synergy with pipericillin, P. aeruginosa; format: cell-based; conditions: P. aeruginosa strain 81-11963 (VIM-2), compound at ¼ the concentration of the antibiotic, 18 h
Procedure: (§4) Such compounds were expected to enhance the potency of a clinically useful β-lactam antibiotic against clinical isolates of human pathogenic bacteria which are highly resistant to β-lactam antibiotics. Certain β-lactamase inhibitors were tested to determine whether or not they would have a synergistic effect on the antibacterial activity of pipericillin against β-lactam antibiotic resistant bacterial clinical isolates using the Agar Dilution Method.
(§5) Bacterial colonies were taken from overnight blood agar plates, and sterile saline was inoculated to make a 0.5 McFarland suspension inoculum and further diluted such that the 10^4 CFU spots were delivered to the MHA (Oxoid) surface. Inhibitor samples were dissolved in DMSO and administered at a pipericillin:compound ratio of 4:1 (wt/wt). The plates were incubated at 35° C. and read after 18 h of incubation. MICs were measured by agar dilution on Mueller-Hinton II agar (BD Microbiology Systems, Cockeysville, Md., USA), as recommended by the NCCLS (National Committee for Clinical Laboratory Standards. (2003).Performance Standards for Antimicrobial Susceptibility Testing.)

[2] = tested on: Stenotrophomonas maltophilia strain 92-00626 (produces metallo β-lactamase L1); assay: Agar dilution MIC, synergy with pipericillin, S. maltophilia; format: cell-based; conditions: S. maltophilia strain 92-00626 (L1), compound at ¼ the concentration of the antibiotic, 18 h
Procedure: as §4, §5

SMILES	IC50 (IMP-1)	pIC50 (VIM-2)	pIC50 (OXA-10)	IC50 (OXA-45)	pIC50 (OXA-45)	inhibition of IMP-1 (in words) (IMP-1)	inhibition of VIM-2 (in words) (VIM-2)	inhibition of OXA-10 (in words) (OXA-10)	inhibition of OXA-45 (in words) (OXA-45)	diminution in the MIC value found for pipericillin [1]	diminution in the MIC value found for pipericillin [2]
O=C(N/N=C/c1ccccc1O)c1ccccc1O [Compound 15, 2-Hydroxy-N′-(2-hydroxybenzylidene)benzohydrazide]	> 40 µM	< 4.40	< 4.40	> 40 µM	–	–	–	–	–	–	–
CC(C)(C)c1ccc(C(=O)N/N=C/c2c3ccccc3cc3ccccc23)cc1 [Compound 1, N′-(Anthracen-9-ylmethylene)-4-t-butylbenzohydrazide]	0.9 µM and 0.91 µM	–	–	–	–	–	–	–	–	–	–
O=C(N/N=C/c1ccccc1O)c1cccnc1 [Compound 13, N′-(2-Hydroxybenzylidene)nicotinohydrazide]	> 100 µM	< 4.00	< 4.00	–	< 4.00	–	–	–	–	–	–
CC(C)(C)c1ccc(C(=O)N/N=C/c2ccccc2[N+](=O)[O-])cc1 [Compound 12, 4-t-Butyl-N′-(2-nitrobenzylidene)benzohydrazide]	> 10 µM	< 5.00	< 5.00	> 10 µM	–	–	–	–	–	–	–
CC(C)(C)c1ccc(C(=O)N/N=C/c2ccc3c(c2)OCO3)cc1 [Compound 11, N′-(Benzo[d][1,3]dioxol-5-ylmethylene)-4-t-butylbenzohydrazide]	> 10 µM	< 5.00	< 5.00	–	< 5.00	–	–	–	–	–	–
O=C(N/N=C/c1ccccc1O)c1cc2ccccc2cc1O [Compound 3, 3-Hydroxy-N′-(2-hydroxybenzylidene)-2-naphthohydrazide]	8.3 µM	4.74	5.41	0.25 µM	–	inhibited	inhibited	inhibited	inhibited	greater than 4 fold	–
CC(C)(C)c1ccc(C(=O)N/N=C/c2cccc(Oc3ccccc3)c2)cc1 [Compound 8, 4-t-Butyl-N′-(3-phenoxybenzylidene)benzohydrazide]	6.7 µM	4.62	4.99	–	5.37	–	–	–	–	–	–
O=C(N/N=C/c1ccccc1O)c1ccncc1 [Compound 14, N′-(2-Hydroxybenzylidene)isonicotinohydrazide]	> 100 µM	< 4.00	< 4.00	> 100 µM	–	–	–	–	–	–	–
CC(C)(C)c1ccc(C(=O)N/N=C/c2c(O)ccc3ccccc23)cc1 [Compound 4, 4-t-Butyl-N′-((2-hydroxynaphthalen-1-yl)methylene)benzohydrazide]	3 µM	5.05	5.77	1.7 µM	–	inhibited	inhibited	inhibited	inhibited	–	–
CC(C)(C)c1ccc(C(=O)N/N=C/c2ccccc2O)cc1 [Compound 5, 4-t-Butyl-N′-(2-hydroxybenzylidene)benzohydrazide]	9 µM	4.74	4.89	28 µM	–	inhibited	inhibited	inhibited	inhibited	–	greater than 4 fold
O=C(N/N=C/c1cccc(Oc2ccccc2)c1)c1cc2ccccc2cc1O [Compound 7, 3-Hydroxy-N-(3-phenoxybenzylidene)-2-naphthohydrazide]	7 µM	5.07	5.74	–	6.25	–	–	–	–	–	–
CC(C)(C)c1ccc(C(=O)N/N=C/c2ccccc2OCc2ccccc2)cc1 [Compound 10, N′-(2-(Benzyloxy)benzylidene)-4-t-butylbenzohydrazide]	4.7 µM	< 5.00	< 5.00	> 10 µM	–	–	–	–	–	–	–
O=C(N/N=C/c1c2ccccc2cc2ccccc12)c1cc2ccccc2cc1O [Compound 6, N′-(Anthracen-9-ylmethylene)-3-hydroxy-2-naphthohydrazide]	1.02 µM	4.91	5.55	0.57 µM	–	–	–	–	–	–	–
O=C(N/N=C/c1ccccc1O)c1ccc2ccccc2c1 [Compound 2, N′-(2-Hydroxybenzylidene)-2-naphthohydrazide]	38.3 µM	4.45	4.82	–	5.74	inhibited	inhibited	inhibited	inhibited	–	–
